Measured values reported in patent publication US6617336B1, “2-arylquinoline derivatives, preparation and therapeutic use thereof” (Sanofi-Synthelabo, priority 1999, dated 2003).

Compound: Cc1cc2cccc([C@H](CO)N3CCCC[C@H]3C)c2nc1-c1ccccc1.Cl
- melting point: 68 °C
